# Data from publication PMC10786919, “Design-rules for stapled peptides with in vivo activity and their application to Mdm2/X antagonists” (Nature Communications, 2024).
# Positions of bridges follow the written chain, without caps; N, C: chain ends. Non-standard residues stand in square brackets, D forms with d. Residues, ends and D or L forms follow the SMILES beside them. R8 = C=CCCCCCC[C@@](C)(N)C(=O)O; Cba = N[C@@H](CC1CCC1)C(=O)O; S5 = C=CCCC[C@](C)(N)C(=O)O
# Legend:
# HCT116 cells = assay: Lactate dehydrogenase (LDH) release assay; type: cell-based
# How it was run: (§1)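 Read-out was lactate dehydrogenase release, reflecting loss of membrane integrity, in reporter-engineered HCT116 cells (p53-responsive β-lactamase) seeded at 8000 cells per well. Final DMSO was 0.5%, and reported values are geometric means from three or more biological repeats.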
# [1] = Lactate dehydrogenase (LDH) release assay; type: cell-based; settings: LDH: Cytotoxicity assay: EC50
# How it was run: as §1
# [2] = Experimental LogD (partition coefficient); settings: for logD: not stated, Partition Coeff LogD
# [3] = Solubility assay (kinetic solubility, PBS pH 7); type: physicochemical; settings: pH 7, PBS; for solubility kinetic: pH 7, aqueous buffer, kinetic from dmso stock, read-out: Solubility
# How it was run: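 Reference standards were made by diluting the 10 mM stock to 100 µM in acetonitrile:methanol:DMSO 10:80:10. Solubility in µM was calculated as the sample peak area divided by the standard peak area, multiplied by the standard concentration.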
Compound,EPSA (physchem) [A^2],LDH: Cytotoxicity assay: % Effect (HCT116 cells) [%],EC50 [1] [µM],logD [2],solubility kinetic [3] [µM],Partition Coeff LogD [2],Solubility [3]
CC(=O)N[C@@H](C)C(=O)N[C@@H](C)C(=O)N[C@@H](C)C(=O)N[C@@H](C)C(=O)N[C@@H](CC(C)C)C(=O)N[C@H](C(=O)N[C@@H](Cc1ccccc1)C(=O)N[C@]1(C)CCCCCCC=CCCC[C@@](C)(C(=O)N[C@@H](CO)C(=O)N[C@@H](C)C(=O)N[C@@H](C)C(N)=O)NC(=O)[C@H](CC2CCC2)NC(=O)[C@H](CCC(N)=O)NC(=O)[C@H](C)NC(=O)[C@H](Cc2c[nH]c3ccccc23)NC(=O)[C@H](Cc2ccc(O)cc2)NC(=O)[C@H](CCC(=O)O)NC1=O)[C@@H](C)O [MP-360],219,2.492,> 50.6,3.24,24.7,,
CC(=O)N[C@H](CC(C)C)C(=O)N[C@H](C(=O)N[C@@H](Cc1ccccc1)C(=O)NC(C)(C)C(=O)N[C@@H](CCC(=O)O)C(=O)N[C@@H](Cc1ccc(O)cc1)C(=O)N[C@@H](Cc1c[nH]c2ccccc12)C(=O)N[C@@H](CCC(N)=O)C(=O)N[C@@H](CC(C)C)C(=O)N[C@@H](CC1CCC1)C(=O)NC(C)(C)C(=O)N[C@@H](CO)C(=O)N[C@@H](C)C(=O)N[C@@H](C)C(N)=O)[C@@H](C)O [MP-787],190,4.125,> 50.6,2.16,24,,
CC(=O)N[C@H](CC(C)C)C(=O)N[C@H](C(=O)N[C@@H](Cc1ccccc1)C(=O)N[C@]1(C)CCCCCCC=CCCC[C@@](C)(C(=O)N[C@@H](CO)C(=O)N[C@H](C)C(=O)N[C@@H](C)C(N)=O)NC(=O)[C@H](CC2CCC2)NC(=O)[C@H](CC(C)C)NC(=O)[C@H](CCC(N)=O)NC(=O)[C@H](Cc2c[nH]c3ccccc23)NC(=O)[C@H](Cc2ccc(O)cc2)NC(=O)[C@H](CCC(=O)O)NC1=O)[C@@H](C)O [MP-7201],191,4.51,> 50,2.8,19,,
CC(=O)N[C@@H](CC(C)C)C(=O)N[C@H](C(=O)N[C@@H](Cc1ccccc1)C(=O)N[C@]1(C)CCCCCCC=CCCC[C@@](C)(C(=O)N[C@@H](CO)C(=O)N[C@@H](C)C(=O)N[C@@H](C)C(N)=O)NC(=O)[C@H](CC2CCC2)NC(=O)[C@H](CC(C)C)NC(=O)[C@H](CCC(N)=O)NC(=O)[C@H](C)NC(=O)[C@H](Cc2ccc(O)cc2)NC(=O)[C@H](CCC(=O)O)NC1=O)[C@@H](C)O [MP-364] (Ac-LTF[R8]EYAQL[Cba][S5]SAA-NH2; staple 4-11),196,68.78,16,,,Poorly Behaved,Poorly Behaved
CC(=O)N[C@@H](CC(C)C)C(=O)N[C@H](C(=O)N[C@@H](Cc1ccccc1)C(=O)NC(C)(C)C(=O)N[C@@H](CCC(=O)O)C(=O)N[C@@H](Cc1ccc(O)cc1)C(=O)N[C@@H](Cc1c[nH]c2ccccc12)C(=O)N[C@@H](CCC(N)=O)C(=O)N[C@H](CC(C)C)C(=O)N[C@@H](CC1CCC1)C(=O)NC(C)(C)C(=O)N[C@@H](CO)C(=O)N[C@@H](C)C(=O)N[C@@H](C)C(N)=O)[C@@H](C)O [MP-788],196,8.3,> 50.6,2.06,83.5,,
CC(=O)N(C)CC(=O)N(C)CC(=O)N(C)CC(=O)N(C)CC(=O)N[C@@H](CC(C)C)C(=O)N[C@H](C(=O)N[C@@H](Cc1ccccc1)C(=O)N[C@]1(C)CCCCCCC=CCCC[C@@](C)(C(=O)N[C@@H](CO)C(=O)N[C@@H](C)C(=O)N[C@@H](C)C(N)=O)NC(=O)[C@H](CC2CCC2)NC(=O)[C@H](CCC(N)=O)NC(=O)[C@H](C)NC(=O)[C@H](Cc2c[nH]c3ccccc23)NC(=O)[C@H](Cc2ccc(O)cc2)NC(=O)[C@H](CCC(=O)O)NC1=O)[C@@H](C)O [MP-361],212,2.48,> 50.6,2.52,70.7,,
